Experiment [1] concerns the target T1, Histone deacetylase 2 (Homo sapiens, UniProt Q92769). The experiment can be described thus: Inhibition of human HDAC2 after 15 mins by trypsin-coupled fluorescence assay.
Experiment [2] concerns the target T2, Protein deacetylase HDAC6 (Homo sapiens, UniProt Q9UBN7).
T2 sequence (Q9UBN7 whole entry): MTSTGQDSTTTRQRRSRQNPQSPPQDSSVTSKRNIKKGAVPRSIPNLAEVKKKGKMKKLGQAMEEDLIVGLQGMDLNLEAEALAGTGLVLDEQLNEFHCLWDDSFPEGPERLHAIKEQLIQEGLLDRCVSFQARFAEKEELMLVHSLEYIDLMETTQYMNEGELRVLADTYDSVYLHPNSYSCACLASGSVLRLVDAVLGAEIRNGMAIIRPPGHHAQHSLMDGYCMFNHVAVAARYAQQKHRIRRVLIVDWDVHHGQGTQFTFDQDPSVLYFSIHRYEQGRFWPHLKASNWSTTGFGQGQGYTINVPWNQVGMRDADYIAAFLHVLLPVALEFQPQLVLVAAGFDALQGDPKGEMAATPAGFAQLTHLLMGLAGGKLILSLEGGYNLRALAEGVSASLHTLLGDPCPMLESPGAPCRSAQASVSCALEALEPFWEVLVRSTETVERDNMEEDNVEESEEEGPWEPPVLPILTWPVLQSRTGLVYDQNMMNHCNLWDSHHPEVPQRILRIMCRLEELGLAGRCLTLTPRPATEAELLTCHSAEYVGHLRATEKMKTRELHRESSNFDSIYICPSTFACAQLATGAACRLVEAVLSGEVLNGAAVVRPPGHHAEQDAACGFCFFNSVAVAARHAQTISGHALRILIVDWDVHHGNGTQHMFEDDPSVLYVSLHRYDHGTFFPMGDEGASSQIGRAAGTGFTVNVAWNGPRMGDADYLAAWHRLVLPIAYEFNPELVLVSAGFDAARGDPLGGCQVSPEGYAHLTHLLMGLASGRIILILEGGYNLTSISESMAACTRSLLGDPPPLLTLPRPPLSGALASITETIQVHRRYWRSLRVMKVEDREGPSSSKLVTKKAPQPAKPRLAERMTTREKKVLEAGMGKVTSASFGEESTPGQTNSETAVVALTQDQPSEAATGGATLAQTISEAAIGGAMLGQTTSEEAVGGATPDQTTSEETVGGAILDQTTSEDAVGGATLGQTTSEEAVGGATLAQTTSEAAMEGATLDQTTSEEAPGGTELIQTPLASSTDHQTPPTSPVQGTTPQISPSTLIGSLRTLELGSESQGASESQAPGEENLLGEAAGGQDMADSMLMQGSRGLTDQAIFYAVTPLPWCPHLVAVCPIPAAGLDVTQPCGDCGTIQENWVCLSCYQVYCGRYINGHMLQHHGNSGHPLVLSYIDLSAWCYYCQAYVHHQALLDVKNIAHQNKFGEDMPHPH
The experiment can be described thus: Inhibition of recombinant human HDAC6 using Boc-Lys(acetyl)-AMC as substrate after 1 hr by fluorescence assay.

Another experiment deals with Histone deacetylase 1 (Homo sapiens, UniProt Q13547). The experiment can be described thus: Inhibition of HDAC1 (unknown origin).
The next experiment has as its target Histone deacetylase 4 (Homo sapiens, UniProt P56524). As to the kind of experiment: Inhibition of HDAC4 (unknown origin).
For the next experiment, the target named is T3, Histone deacetylase 8 (Homo sapiens, UniProt Q9BY41).
T3 sequence (Q9BY41 whole entry): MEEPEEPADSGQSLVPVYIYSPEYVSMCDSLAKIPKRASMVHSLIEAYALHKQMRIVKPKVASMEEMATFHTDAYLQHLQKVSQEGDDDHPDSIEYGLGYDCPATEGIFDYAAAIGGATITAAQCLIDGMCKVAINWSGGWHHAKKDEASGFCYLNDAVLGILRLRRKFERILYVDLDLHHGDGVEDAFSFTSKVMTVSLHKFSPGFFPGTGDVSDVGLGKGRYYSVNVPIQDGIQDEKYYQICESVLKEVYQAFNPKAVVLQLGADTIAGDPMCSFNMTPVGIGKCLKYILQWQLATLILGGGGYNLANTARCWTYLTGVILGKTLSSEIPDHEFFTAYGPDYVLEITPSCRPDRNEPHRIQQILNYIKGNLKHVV
The experiment can be described thus: Inhibition of HDAC8 (unknown origin).

Experiment [3] deals with T2, Protein deacetylase HDAC6. As to the kind of experiment: Inhibition of HDAC6 (unknown origin).
The target of the next experiment is T4, Histone deacetylase 11 (Homo sapiens, UniProt Q96DB2).
T4 sequence (Q96DB2 whole entry): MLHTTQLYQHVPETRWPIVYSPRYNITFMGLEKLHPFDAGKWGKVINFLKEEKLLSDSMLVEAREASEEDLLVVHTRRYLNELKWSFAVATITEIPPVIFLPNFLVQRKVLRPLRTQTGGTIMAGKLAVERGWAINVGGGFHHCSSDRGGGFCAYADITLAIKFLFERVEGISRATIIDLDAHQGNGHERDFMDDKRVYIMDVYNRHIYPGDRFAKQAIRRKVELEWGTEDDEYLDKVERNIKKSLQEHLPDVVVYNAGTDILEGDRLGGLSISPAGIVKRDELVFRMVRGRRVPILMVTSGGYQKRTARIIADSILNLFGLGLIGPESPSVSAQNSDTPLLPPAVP
The experiment can be described thus: Inhibition of HDAC11 (unknown origin).

Experiment [4] addresses T1, Histone deacetylase 2. The experiment can be described thus: Inhibition of HDAC2 (unknown origin).
Experiment [5] has as its target T5, Polyamine deacetylase HDAC10 (Homo sapiens, UniProt Q969S8).
T5 sequence (Q969S8 whole entry): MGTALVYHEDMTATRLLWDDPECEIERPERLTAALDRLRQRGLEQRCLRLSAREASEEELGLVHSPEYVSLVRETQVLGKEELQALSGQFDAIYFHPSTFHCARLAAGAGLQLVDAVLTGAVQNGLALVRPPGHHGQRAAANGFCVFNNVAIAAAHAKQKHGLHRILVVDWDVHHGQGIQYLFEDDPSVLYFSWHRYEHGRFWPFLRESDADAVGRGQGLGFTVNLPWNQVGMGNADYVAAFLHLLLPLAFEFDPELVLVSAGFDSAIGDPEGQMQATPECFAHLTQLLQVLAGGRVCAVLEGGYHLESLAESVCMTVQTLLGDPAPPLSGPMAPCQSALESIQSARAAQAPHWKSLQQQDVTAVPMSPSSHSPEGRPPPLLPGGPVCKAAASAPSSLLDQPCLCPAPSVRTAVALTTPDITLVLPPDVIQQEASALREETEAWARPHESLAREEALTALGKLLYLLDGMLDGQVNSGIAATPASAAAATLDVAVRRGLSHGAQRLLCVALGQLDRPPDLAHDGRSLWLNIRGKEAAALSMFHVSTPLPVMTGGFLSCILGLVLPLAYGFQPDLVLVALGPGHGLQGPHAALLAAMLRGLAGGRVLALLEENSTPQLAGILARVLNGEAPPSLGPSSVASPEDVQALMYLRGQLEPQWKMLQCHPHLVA
The experiment can be described thus: Inhibition of HDAC10 (unknown origin).

Another experiment concerns the target Histone deacetylase 5 (Homo sapiens, UniProt Q9UQL6). The experiment can be described thus: Inhibition of HDAC5 (unknown origin).
Another experiment has as its target Histone deacetylase 9 (Homo sapiens, UniProt Q9UKV0). The experiment can be described thus: Inhibition of HDAC9 (unknown origin).
The target of the next experiment is Histone deacetylase 3 (Homo sapiens, UniProt O15379). As to the kind of experiment: Inhibition of HDAC3 (unknown origin).
Experiment [6] can be described thus: Inhibition of HDAC activity in human DU-145 cell nuclear extract.

Sequence of Histone deacetylase 4 (P56524 whole entry): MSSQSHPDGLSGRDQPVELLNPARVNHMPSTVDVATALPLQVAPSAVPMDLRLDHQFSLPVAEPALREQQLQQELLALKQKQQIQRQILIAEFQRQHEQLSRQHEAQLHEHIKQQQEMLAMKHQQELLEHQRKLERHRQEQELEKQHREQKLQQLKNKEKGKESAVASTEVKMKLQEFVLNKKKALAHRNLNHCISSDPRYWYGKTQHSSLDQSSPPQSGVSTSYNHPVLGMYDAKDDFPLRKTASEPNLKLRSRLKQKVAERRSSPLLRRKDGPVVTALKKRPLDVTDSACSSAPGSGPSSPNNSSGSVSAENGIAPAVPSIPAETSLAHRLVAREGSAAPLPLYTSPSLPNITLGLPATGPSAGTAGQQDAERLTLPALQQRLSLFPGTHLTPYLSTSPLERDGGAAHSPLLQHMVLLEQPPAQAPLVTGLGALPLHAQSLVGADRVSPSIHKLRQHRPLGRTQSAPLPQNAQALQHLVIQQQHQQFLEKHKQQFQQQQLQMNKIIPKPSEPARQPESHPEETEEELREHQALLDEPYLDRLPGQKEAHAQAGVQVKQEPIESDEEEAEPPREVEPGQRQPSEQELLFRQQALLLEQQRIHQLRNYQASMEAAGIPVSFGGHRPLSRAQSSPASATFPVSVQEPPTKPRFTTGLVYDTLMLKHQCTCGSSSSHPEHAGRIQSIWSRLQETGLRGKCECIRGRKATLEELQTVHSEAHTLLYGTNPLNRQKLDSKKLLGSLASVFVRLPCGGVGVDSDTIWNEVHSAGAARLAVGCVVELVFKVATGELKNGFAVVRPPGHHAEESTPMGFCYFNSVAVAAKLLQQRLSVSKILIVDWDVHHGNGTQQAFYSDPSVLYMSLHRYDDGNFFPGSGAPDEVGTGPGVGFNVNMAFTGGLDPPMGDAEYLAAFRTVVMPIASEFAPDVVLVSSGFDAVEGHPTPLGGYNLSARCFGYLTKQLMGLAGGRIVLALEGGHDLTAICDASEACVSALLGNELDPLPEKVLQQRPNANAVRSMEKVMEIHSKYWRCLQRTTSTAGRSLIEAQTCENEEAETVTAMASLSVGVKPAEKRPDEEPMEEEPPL
T1 sequence (Q92769 whole entry): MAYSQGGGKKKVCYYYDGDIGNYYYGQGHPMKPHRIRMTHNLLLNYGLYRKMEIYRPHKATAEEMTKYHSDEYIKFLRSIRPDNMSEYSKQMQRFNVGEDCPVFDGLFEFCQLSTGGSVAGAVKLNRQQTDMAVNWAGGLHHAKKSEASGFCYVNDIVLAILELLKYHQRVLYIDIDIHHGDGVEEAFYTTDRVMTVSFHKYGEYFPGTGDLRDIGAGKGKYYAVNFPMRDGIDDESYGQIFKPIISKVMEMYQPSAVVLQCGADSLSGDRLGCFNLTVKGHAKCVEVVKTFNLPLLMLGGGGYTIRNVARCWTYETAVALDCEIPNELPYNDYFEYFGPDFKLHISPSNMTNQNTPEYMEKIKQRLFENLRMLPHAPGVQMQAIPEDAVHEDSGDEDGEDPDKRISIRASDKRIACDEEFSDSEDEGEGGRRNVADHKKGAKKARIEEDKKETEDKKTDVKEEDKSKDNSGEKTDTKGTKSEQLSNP
Sequence of Histone deacetylase 5 (Q9UQL6 whole entry): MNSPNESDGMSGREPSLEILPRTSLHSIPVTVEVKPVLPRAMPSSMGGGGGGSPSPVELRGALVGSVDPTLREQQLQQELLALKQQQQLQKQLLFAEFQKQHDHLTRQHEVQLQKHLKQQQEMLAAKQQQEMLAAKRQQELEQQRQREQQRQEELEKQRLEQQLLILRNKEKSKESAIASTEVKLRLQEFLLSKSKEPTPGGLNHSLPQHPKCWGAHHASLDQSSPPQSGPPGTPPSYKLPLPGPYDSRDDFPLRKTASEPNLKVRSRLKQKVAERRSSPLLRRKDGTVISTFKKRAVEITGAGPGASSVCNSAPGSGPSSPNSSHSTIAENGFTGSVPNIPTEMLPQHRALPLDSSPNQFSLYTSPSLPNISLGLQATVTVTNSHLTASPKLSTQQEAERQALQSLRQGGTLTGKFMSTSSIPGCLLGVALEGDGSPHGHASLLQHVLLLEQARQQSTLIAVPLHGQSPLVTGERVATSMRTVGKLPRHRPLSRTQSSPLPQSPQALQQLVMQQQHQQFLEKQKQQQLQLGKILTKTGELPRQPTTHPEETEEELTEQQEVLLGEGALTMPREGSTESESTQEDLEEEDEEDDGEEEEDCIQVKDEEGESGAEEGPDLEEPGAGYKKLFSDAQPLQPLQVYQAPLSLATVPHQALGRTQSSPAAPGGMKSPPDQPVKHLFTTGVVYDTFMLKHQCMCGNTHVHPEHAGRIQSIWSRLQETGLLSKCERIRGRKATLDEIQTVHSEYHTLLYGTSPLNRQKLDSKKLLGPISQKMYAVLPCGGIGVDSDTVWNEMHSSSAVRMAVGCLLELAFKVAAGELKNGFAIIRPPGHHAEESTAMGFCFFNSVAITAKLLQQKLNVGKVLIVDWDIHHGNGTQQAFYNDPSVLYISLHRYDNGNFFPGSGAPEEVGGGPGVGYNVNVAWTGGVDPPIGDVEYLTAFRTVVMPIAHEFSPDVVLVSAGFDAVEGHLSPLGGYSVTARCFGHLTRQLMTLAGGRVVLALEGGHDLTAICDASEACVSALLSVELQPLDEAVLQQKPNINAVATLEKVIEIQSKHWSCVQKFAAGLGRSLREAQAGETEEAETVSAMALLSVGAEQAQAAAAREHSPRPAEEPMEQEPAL
Sequence of Histone deacetylase 9 (Q9UKV0 whole entry): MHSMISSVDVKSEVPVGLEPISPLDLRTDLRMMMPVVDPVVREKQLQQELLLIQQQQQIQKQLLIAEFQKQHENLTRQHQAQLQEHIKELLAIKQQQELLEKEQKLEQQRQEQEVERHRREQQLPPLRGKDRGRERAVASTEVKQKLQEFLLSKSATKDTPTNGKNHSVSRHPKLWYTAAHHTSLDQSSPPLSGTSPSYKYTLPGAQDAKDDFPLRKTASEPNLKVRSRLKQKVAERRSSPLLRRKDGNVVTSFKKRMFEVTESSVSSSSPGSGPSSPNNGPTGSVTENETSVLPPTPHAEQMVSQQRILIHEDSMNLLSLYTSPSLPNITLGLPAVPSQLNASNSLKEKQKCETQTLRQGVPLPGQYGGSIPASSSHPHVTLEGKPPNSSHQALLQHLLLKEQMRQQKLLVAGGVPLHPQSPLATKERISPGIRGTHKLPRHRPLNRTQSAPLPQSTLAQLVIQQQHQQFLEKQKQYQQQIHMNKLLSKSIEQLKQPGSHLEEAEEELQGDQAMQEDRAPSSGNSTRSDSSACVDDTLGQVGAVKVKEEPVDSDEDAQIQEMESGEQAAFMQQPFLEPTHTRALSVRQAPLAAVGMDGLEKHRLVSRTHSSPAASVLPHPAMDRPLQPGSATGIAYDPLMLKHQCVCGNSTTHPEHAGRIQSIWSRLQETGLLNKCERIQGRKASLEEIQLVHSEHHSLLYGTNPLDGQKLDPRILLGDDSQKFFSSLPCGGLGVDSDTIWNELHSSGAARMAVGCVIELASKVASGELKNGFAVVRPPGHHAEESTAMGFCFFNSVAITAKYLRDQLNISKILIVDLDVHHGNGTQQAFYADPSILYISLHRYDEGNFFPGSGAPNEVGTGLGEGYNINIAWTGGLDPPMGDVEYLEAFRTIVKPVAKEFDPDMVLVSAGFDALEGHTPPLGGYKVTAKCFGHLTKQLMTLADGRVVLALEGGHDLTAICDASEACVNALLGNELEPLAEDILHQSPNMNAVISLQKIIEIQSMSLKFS
Sequence of Histone deacetylase 3 (O15379 whole entry): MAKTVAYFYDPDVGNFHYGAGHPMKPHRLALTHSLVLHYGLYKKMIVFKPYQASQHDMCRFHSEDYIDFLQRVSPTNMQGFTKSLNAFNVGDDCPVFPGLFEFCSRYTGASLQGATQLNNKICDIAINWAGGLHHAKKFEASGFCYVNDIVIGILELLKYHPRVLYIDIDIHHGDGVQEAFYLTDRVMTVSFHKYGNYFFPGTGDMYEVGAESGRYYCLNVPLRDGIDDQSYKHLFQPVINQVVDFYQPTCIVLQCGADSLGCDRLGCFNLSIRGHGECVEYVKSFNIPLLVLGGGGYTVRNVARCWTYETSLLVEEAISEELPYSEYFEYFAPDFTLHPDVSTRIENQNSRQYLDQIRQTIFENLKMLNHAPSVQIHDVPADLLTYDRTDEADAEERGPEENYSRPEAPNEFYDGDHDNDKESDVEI
Sequence of Histone deacetylase 1 (Q13547 whole entry): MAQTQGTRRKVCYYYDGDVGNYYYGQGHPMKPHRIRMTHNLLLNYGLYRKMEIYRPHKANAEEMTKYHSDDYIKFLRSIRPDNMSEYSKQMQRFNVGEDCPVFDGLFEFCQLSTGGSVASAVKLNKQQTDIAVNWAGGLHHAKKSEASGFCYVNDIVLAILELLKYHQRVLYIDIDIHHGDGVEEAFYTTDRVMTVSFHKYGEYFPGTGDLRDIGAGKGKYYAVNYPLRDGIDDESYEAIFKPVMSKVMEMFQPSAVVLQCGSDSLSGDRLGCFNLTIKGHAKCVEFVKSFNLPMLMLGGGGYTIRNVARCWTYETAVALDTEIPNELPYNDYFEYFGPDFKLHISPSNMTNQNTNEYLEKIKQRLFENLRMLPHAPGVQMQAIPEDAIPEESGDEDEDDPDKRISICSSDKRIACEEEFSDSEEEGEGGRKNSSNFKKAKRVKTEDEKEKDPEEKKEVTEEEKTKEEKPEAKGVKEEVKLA

What is called IC50 is the point on the concentration scale where inhibition reaches its midpoint. In the case of `O=C(NO)c1ccc(CC(=O)N(CCO)c2ccccc2)cc1`, the IC50 at Histone deacetylase 2 [1] stood at 4.4 µM.

In the case of `O=C(Cc1ccc(C(=O)NO)cc1)NC1=CC(=O)c2ccccc2C1=O`, the IC50 in experiment [2] was 0.006 µM.

Consider `O=C(NO)c1ccc(Cn2c3c(c4ccccc42)S(=O)(=O)CC3)cc1`, for which the IC50 on Histone deacetylase 1 was 12 µM; against Histone deacetylase 4 it was 0.6 µM; at Histone deacetylase 8, 1.9 µM; in experiment [3], 0.008 µM; at Histone deacetylase 11, 17 µM; against Histone deacetylase 2 [4] it was > 30 µM. The IC50 in experiment [5] came to 13 µM; against Histone deacetylase 5 it was 0.4 µM; at Histone deacetylase 9, 0.2 µM.

With `Cc1nc2ccccc2n1Cc1ccc(C(=O)NO)cc1F`, the IC50 on Histone deacetylase 4 is 0.5 µM; against Histone deacetylase 8, 0.2 µM; in [3], 0.0008 µM; on Histone deacetylase 3, 12.5 µM; against Histone deacetylase 11, 12.9 µM; against Histone deacetylase 2 [4], 20.3 µM. The IC50 in experiment [5] turned out to be 20.4 µM; at Histone deacetylase 5, 0.2 µM.

`O=C(CCCc1ccccc1)Nc1ccc(C(=O)NO)cc1` gave an IC50 in experiment [6] of 0.044 µM.

`O=C(NO)c1ccc(CN2c3ccccc3S(=O)(=O)C[C@H]3CCCC[C@H]32)cc1`: the IC50 against Histone deacetylase 1 was 8.1 µM; on Histone deacetylase 4, > 30 µM; against Histone deacetylase 8, 1.1 µM; in [3], 0.008 µM; on Histone deacetylase 3 it was 24 µM; against Histone deacetylase 11 it was 2.4 µM. Further, the IC50 at Histone deacetylase 2 [4] was 24 µM; in experiment [5], 10 µM; at Histone deacetylase 5 it was 9.1 µM; at Histone deacetylase 9 it was 13 µM.

These data come from ChEMBL document CHEMBL4033665, “Synthesis and applications of benzohydroxamic acid-based histone deacetylase inhibitors” (Eur J Med Chem, 2017).
